What was measured:
CA domain of RavS = CA domain of RavS (Xanthomonas campestris pv. campestris, UniProt Q8P9A6); test: microscale thermophoresis (MST) binding; conditions: read-out: dissociation constant (Kd)
Procedure: (§1) Fig 6 Arg^656 in the CA domain of RavS is a key residue for c-di-GMP binding. (a, b) c-di-GMP binds to the DHp-CA domain of RavS. PAS-A, PAS-B and DHp-CA in (a), and DHp and CA domains of RavS in (b), were purified and the interaction with c-di-GMP was measured by MST. Each assay was repeated three times. Standard deviations are shown. (c) Molecular docking model of the interaction between c-di-GMP and DHp-CA of RavS. c-di-GMP is shown as a ball-and-stick model and DHp-CA is shown in ribbon representation. (d) Schematic view of the predicted docking site between c-di-GMP and DHp-CA. Potential hydrogen bonds are indicated as blue dashed lines. Autodock software was used to predict the interaction. (e) Effect of amino acid substitutions on RavS–c-di-GMP binding. Ten recombinant proteins of the DHp-CA region, each containing a substitution of a putative essential residue involved in c-di-GMP binding, were used in the MST assay to quantify the Kd value of RavS–c-di-GMP binding. fl-c-di-GMP was used in the MST assay. Each experiment was repeated three times. […] The reactions were terminated with 5× SDS loading buffer and the products were separated by 12% SDS-PAGE, exposed to a phosphor screen and analysed by Typhoon FLA7000. […]
(§2) The interaction between c-di-GMP nucleotides and various proteins was measured by using MST with a fluorescein-labelled c-di-GMP (2′-Fluo-AHC-c-di-GMP, abbreviated as fl-c-di-GMP; 2′-Fluo-AHC-c-di-AMP, fl-c-di-AMP; 2′-Fluo-AHC-cGMP, fl-cGMP; Biolog, Germany). These chemicals contain carboxyfluorescein that has excitation and emission wavelengths of 497 nm and 520 nm, respectively, which can be detected directly by a MST instrument. […] Fluorescence intensity due to thermophoresis was recorded using the blue channel optics of the instrument (λex = 470 ± 15 nm, λem = 520 ± 10 nm) during a 30 s period of infrared laser heating at 80% of the maximum laser power, followed by a 5 s cooling period. […]

DHp-CA domain of RavS = DHp-CA domain of RavS (Xanthomonas campestris pv. campestris, UniProt Q8P9A6); test: microscale thermophoresis (MST) binding; conditions: read-out: dissociation constant (Kd)
Procedure: as §1, §2

RavS^ΔN(R656A) = test: in vitro phosphotransfer assay with Arg656-substituted RavS; format: biochemical, Xanthomonas campestris pv. campestris; conditions: 15 or 100 μM c-di-GMP
Procedure: as §1, with “(e) Effect of amino acid substitutions on RavS–c-di-GMP binding.” left out, “assay.” for “assay. Each experiment was repeated three times.”
An in vitro autophosphorylation assay was conducted as described in our previous study. […] After electrophoresis, gels were exposed to a phosphor screen (GE Healthcare) and the autoradiographic signals were detected by a Typhoon FLA7000 (GE Healthcare).

DHp-CA^R656A = molecular target: T1, DHp-CA^R656A (Xanthomonas campestris pv. campestris, UniProt Q8P9A6, R656A); test: microscale thermophoresis (MST) binding; conditions: compared with DHp-CA protein
T1 sequence (Q8P9A6 464-697 R656A): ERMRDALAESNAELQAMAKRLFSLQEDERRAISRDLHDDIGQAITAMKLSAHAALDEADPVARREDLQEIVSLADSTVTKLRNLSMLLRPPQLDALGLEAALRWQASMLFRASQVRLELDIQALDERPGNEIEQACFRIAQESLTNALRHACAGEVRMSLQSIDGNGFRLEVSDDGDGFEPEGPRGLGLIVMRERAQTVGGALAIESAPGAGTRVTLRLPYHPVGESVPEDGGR
Procedure: as §1, §2

What does the source list for `Nc1nc2c(ncn2[C@@H]2O[C@@H]3COP(=O)(O)O[C@H]4[C@@H](OC(=O)NCCCCCCNC(=O)c5ccc6c(c5)C(=O)OC65c6ccc(O)cc6Oc6cc(O)ccc65)[C@H](n5cnc6c(=O)[nH]c(N)nc65)O[C@@H]4COP(=O)(O)O[C@H]3[C@H]2O)c(=O)[nH]1` [fl-c-di-GMP, 2′-Fluo-AHC-c-di-GMP]?
Kd (CA domain of RavS): 17.1 ± 3.78 µM; Kd (DHp-CA domain of RavS): 6.25 ± 0.8 µM

How did the “stimulation of phosphotransferase activity of RavS^ΔN(R656A)~P towards RavR^ΔEAL” value (RavS^ΔN(R656A)) turn out when `Nc1nc2c(ncn2[C@@H]2O[C@@H]3COP(=O)(O)O[C@H]4[C@@H](O)[C@H](n5cnc6c(=O)[nH]c(N)nc65)O[C@@H]4COP(=O)(O)O[C@H]3[C@H]2O)c(=O)[nH]1` [c-di-GMP, Cyclic di-GMP] was run?
The value was “failed to stimulate”.

What about the “fold decrease in binding affinity” value (DHp-CA^R656A) of the same molecule?
Its value is 10 fold.

From article PMC6707612, “Cyclic-di-GMP binds to histidine kinase RavS to control RavS-RavR phosphotransfer and regulates the bacterial lifestyle transition between virulence and swimming” (PLoS Pathogens, 2019)
